Laboratory results reported in the supplement of paper PMC13380429.

Key:
Conditions in all cases: 72 h
Caco-2 [1] = experiment: relative viability EC50 (midpoint between 100% and the lowest measured viability); higher = less toxic
Vero E6 [2] = experiment: as above
Calu-3 [3] = experiment: as above
U2OS [4] = experiment: as above
HepG2 [5] = experiment: as above
Caco-2 [6] = experiment: drug sensitivity score (DSS) for viability; higher = more toxic; extreme values may be limits of the assay
Vero E6 [7] = experiment: as above
Calu-3 [8] = experiment: as above
U2OS [9] = experiment: as above
HepG2 [10] = experiment: as above
Caco-2 [11] = experiment: cell viability relative to DMSO; higher = less toxic
Vero E6 [12] = experiment: as above
Calu-3 [13] = experiment: as above
U2OS [14] = experiment: as above
HepG2 [15] = experiment: as above

SMILES	relative viability EC50 (Caco-2 [1]) [µM]	relative viability EC50 (Vero E6 [2]) [µM]	relative viability EC50 (Calu-3 [3]) [µM]	relative viability EC50 (U2OS [4]) [µM]	relative viability EC50 (HepG2 [5]) [µM]	drug sensitivity score (Caco-2 [6])	drug sensitivity score (Vero E6 [7])	drug sensitivity score (Calu-3 [8])	drug sensitivity score (U2OS [9])	drug sensitivity score (HepG2 [10])	cell viability (Caco-2 [11]; 1 nM) [%]	cell viability (Caco-2 [11]; 10 nM) [%]	cell viability (Caco-2 [11]; 100 nM) [%]	cell viability (Caco-2 [11]; 1000 nM) [%]	cell viability (Caco-2 [11]; 10000 nM) [%]	cell viability (Vero E6 [12]; 1 nM) [%]	cell viability (Vero E6 [12]; 10 nM) [%]	cell viability (Vero E6 [12]; 100 nM) [%]	cell viability (Vero E6 [12]; 1000 nM) [%]	cell viability (Vero E6 [12]; 10000 nM) [%]	cell viability (Calu-3 [13]; 1 nM) [%]	cell viability (Calu-3 [13]; 10 nM) [%]	cell viability (Calu-3 [13]; 100 nM) [%]	cell viability (Calu-3 [13]; 1000 nM) [%]	cell viability (Calu-3 [13]; 10000 nM) [%]	cell viability (U2OS [14]; 1 nM) [%]	cell viability (U2OS [14]; 10 nM) [%]	cell viability (U2OS [14]; 100 nM) [%]	cell viability (U2OS [14]; 1000 nM) [%]	cell viability (U2OS [14]; 10000 nM) [%]	cell viability (HepG2 [15]; 1 nM) [%]	cell viability (HepG2 [15]; 10 nM) [%]	cell viability (HepG2 [15]; 100 nM) [%]	cell viability (HepG2 [15]; 1000 nM) [%]	cell viability (HepG2 [15]; 10000 nM) [%]
O=C(O)CCCC[C@@H]1SC[C@@H]2NC(=O)N[C@@H]21 [biotin]	> 10	> 10	> 10	> 10	> 10	0.1	0	0	0	0	95.8	96.3	101	95.1	89.3	106	66.8	105	59.3	106	93.8	105	98	102	97.6	99.2	101	97.7	101	97.8	111	101	108	97.4	104
CC(=O)OCC(=O)[C@H]1CC[C@H]2[C@@H]3CC[C@H]4C[C@H](O)CC[C@]4(C)[C@H]3C(=O)C[C@]12C [alfadolone-acetate]	> 10	> 10	> 10	> 10	> 10	0	0	0	0	0	99.9	102	102	101	100	106	104	98.3	104	97.3	99.9	101	99.8	111	91.3	105	97.7	98.7	103	100	98.7	101	109	104	102
COc1ccc2cc(C(C)C(=O)Oc3ccc(C(N)=S)cc3)ccc2c1 (stereo not given) [ATB-346]	> 10	> 10	> 10	> 10	> 10	0	0	0	0	0	90	102	93.7	89.6	98.6	100	94.3	95.7	94.4	97.6	100	102	98.8	102	101	99.7	100	99.1	99.9	96.9	98.2	88.4	97.2	98.7	97.7
CC(=O)NO [acetohydroxamic-acid]	> 10	> 10	> 10	> 10	> 10	0	0	0	0	0	96.3	97.6	94.9	95.5	112	97.6	97.2	102	101	97.6	104	98.8	112	92.6	96.9	106	102	97.7	98.7	99.8	99.6	101	95.9	96.2	97.3
Cc1cc(O)cc(C)c1Cl [chloroxylenol]	> 10	> 10	> 10	> 10	> 10	0.3	0	0	0	0	99.8	101	93.2	92	89.3	101	101	96.9	99.1	104	104	108	94.7	105	95.5	102	106	97.3	99.8	95.4	90.6	92	105	104	94
CC(OC(=O)NCC1(CC(=O)O)CCCCC1)OC(=O)C(C)C (stereo not given) [gabapentin-enacarbil]	> 10	> 10	> 10	> 10	> 10	0	0	0	0	0	105	87.2	106	110	104	83.4	97.8	84.2	107	106	103	96.3	106	104	89	101	96.5	102	94	102	101	93.8	94.7	90.1	89.4
NCCCC[C@H](NC(=O)[C@@H](Cc1cc(Br)c(O)c(Br)c1)NC(=O)N1CCC(N2Cc3ccccc3NC2=O)CC1)C(=O)N1CCN(c2ccncc2)CC1 [BIBN4096]	> 10	> 10	> 10	> 10	> 10	0	0	0	0.3	0	88.6	97	101	90.3	100	102	97.2	98.6	99.1	104	93.7	96.9	100	110	105	95.8	98.5	94.8	84.5	91.6	102	97.2	92.4	97.5	102
CCO[C@H]1O[C@@H]2O[C@@]3(C)CC[C@H]4[C@H](C)CC[C@@H]([C@H]1C)[C@@]24OO3 [artemotil]	> 10	> 10	> 10	> 10	> 10	0	0	0	1	0.2	92.1	101	86.6	94.5	91.5	89.7	95.1	95.8	91.5	98	94.2	109	95.4	109	104	98.1	100	95.4	97.2	79.1	107	100	104	89.1	94.5
NC(=O)c1ncn([C@@H]2O[C@H](CO)[C@@H](O)[C@H]2O)c1O [mizoribine]	> 10	> 10	> 10	> 10	> 10	0	0	0	0	0	93.8	97.7	94.7	97.1	97.6	101	103	99.1	97.8	101	104	101	95.3	102	88.4	101	103	99.6	96.3	99.1	112	100	110	96.2	106
COC(=O)C1=C(C)N(C)C(C)=C(C(=O)OC)C1c1ccc(C(F)(F)F)cc1 [BAY-W-9798]	> 10	> 10	> 10	> 10	> 10	0	0	0	0	0	91.8	99.4	98.9	97.1	95.4	93.7	92.5	94.2	96.3	107	95.1	103	93.4	98.1	100	96.9	102	96.4	102	103	96.7	93.3	106	96.3	101
CC(C)(O)CC(=O)O [beta-hydroxy-beta-methylbutyrate]	> 10	> 10	> 10	> 10	> 10	0	0	0	0	0	102	92.2	99.4	92.6	97.2	106	108	101	99.5	100	98.7	100	105	102	113	105	99.5	98.1	95.9	99.5	91.8	94.3	101	104	93.3
O=C(O)c1nc(=O)[nH]c(=O)[nH]1 [oxonic-acid]	> 10	> 10	> 10	> 10	> 10	0	0	0	0	0	87.9	76.3	89.9	112	101	89.2	63.8	98.5	79.8	90.7	94.6	106	105	110	108	102	101	99.6	102	106	105	103	97.4	115	101
NC(=O)N/N=C/c1ccc(Oc2ccc(F)cc2)cc1	> 10	> 10	> 10	> 10	> 10	0	0.1	0	0	0.1	99.6	98.4	104	96.8	97.9	105	101	104	100	86.6	99.9	101	80.1	92.8	109	95.9	94.5	98.9	97.6	99.4	95.8	106	92.4	89.7	96
C[C@@H]1CC[C@@]2(OC1)O[C@H]1C[C@H]3[C@@H]4CC=C5C[C@@H](O)CC[C@]5(C)[C@H]4CC[C@]3(C)[C@H]1[C@@H]2C [diosgenin]	> 10	> 10	> 10	> 10	> 10	0	0	0	0	0	105	97.9	101	94.5	101	102	107	102	103	98.1	96.8	91.3	84.2	95.4	95.4	95.9	99.1	101	99.9	98.1	101	105	98.8	102	106
O=C(O)CCNC(=O)c1ccccc1 [betamipron]	> 10	> 10	> 10	> 10	> 10	0	0	0	0	0	90.2	95.6	99.7	100	103	94.6	96.4	95.6	92.2	96.2	108	90.6	113	104	116	102	98	101	92.5	99.4	94.8	111	95.9	114	105
Oc1ccnc2cc(Cl)ccc12 [chloroxoquinoline]	> 10	> 10	> 10	> 10	> 10	0	0	0	0	0	98.7	96.3	94.7	90.8	89.9	102	90.9	101	96.1	99.5	87.2	95.4	92.9	105	92.2	98.5	99.7	95.5	103	95.5	104	96.3	94.6	92.4	105
O=C(NCC1CCOCC1)c1cnc(Nc2ccc(Cl)cc2Cl)nc1C(F)(F)F	> 10	> 10	> 10	> 10	> 10	0	0	0	0	0	104	99.3	113	104	101	99.8	91.9	94.8	93.1	98.9	104	107	100	99.4	105	96.5	102	96	95.5	93.2	105	102	102	99.2	112
CC(C)C(=O)OC[C@@]1(N=[N+]=[N-])O[C@@H](n2ccc(N)nc2=O)[C@H](OC(=O)C(C)C)[C@@H]1OC(=O)C(C)C [balapiravir]	> 10	> 10	> 10	> 10	> 10	0	0	0	0	0	103	87	100	98.7	88.9	98.6	92.8	93.4	98.4	90.7	99	99.1	97	100	102	99.6	94.9	96	95.5	94.6	95.6	102	92.6	102	92.4
O=C(O)c1cccnc1 [niacin]	> 10	> 10	> 10	> 10	> 10	0	0	0	0	0	91.6	96.7	94.2	103	103	99.4	98.7	96.3	91.1	101	86.8	103	98.9	109	99.2	93.8	98.2	95.3	97.1	102	113	105	114	97.9	106
CN(C)C(=O)CCSC(SCCC(=O)O)c1cccc(/C=C/c2ccc3ccc(Cl)cc3n2)c1 (stereo not given) [MK-571]	> 10	> 10	> 10	> 10	> 10	0	0	0	0	0	97.8	92.2	95	92.6	95.2	98.4	93.5	99.6	99.1	91.5	101	97.5	101	101	104	102	101	97.2	94.3	101	102	106	97.7	108	95.7
Cc1cc(OCCCS(C)(=O)=O)cc(C)c1-c1cccc(COc2ccc3c(c2)OC[C@H]3CC(=O)O)c1 [TAK-875]	> 10	> 10	> 10	> 10	> 10	2.5	0	0	0	0	99.8	101	89.3	85.4	77.8	100	106	97.3	98.7	96.3	98.2	105	99.8	111	102	95.6	98.7	96.9	96.7	94.3	93.8	97.3	95.9	94.4	96.7
CCNCC(O)c1cccc(O)c1 (stereo not given) [etilefrine]	> 10	> 10	> 10	> 10	> 10	0	0	0	0	0	92.1	105	93	99.7	104	97.1	93.6	98.3	96.4	99.6	99.2	102	98.9	102	104	98.9	103	98.1	98.9	95.7	95.2	87.3	89	93	104
Cc1ccccc1C(=O)Nc1ccc(C(=O)N2CCCC(O)c3cc(Cl)ccc32)c(C)c1 (stereo not given) [tolvaptan]	> 10	> 10	> 10	> 10	> 10	0.1	0	0.5	0	0	100	96.4	90.1	89.8	94.1	99.4	100	93.4	98.3	104	91	86.3	91.7	78.8	102	94.2	92.1	103	97.4	96.7	99.7	93	96.4	106	110
